Key:
[1] = tested on: A-375; experiment: Antiproliferative activity against human A-375 cells assessed as growth inhibition incubated at 10 uM for 24 hrs by MTT assay relative to control; format: functional; conditions: read-out: GI
[2] = tested on: MOLT-4; experiment: Antiproliferative activity against human MOLT-4 cells assessed as growth inhibition incubated at 10 uM for 24 hrs by MTT assay relative to control; format: functional; conditions: read-out: GI
[3] = target: Insulin-like growth factor 1 receptor (Homo sapiens, UniProt P08069); experiment: Inhibition of IGF1R (unknown origin) by FRET assay
[4] = Selectivity index, ratio of IC50 for CDK5 (unknown origin) to CDK1 (unknown origin)
[5] = target: Cyclin-dependent kinase 5 (Homo sapiens, UniProt Q00535); experiment: Inhibition of CDK5 (unknown origin) by FRET assay
[6] = target: Fibroblast growth factor receptor (Homo sapiens, UniProt P22607+P11362+P22455+P21802); experiment: Inhibition of FGFR (unknown origin) by FRET assay; format: protein assay
[7] = target: Cyclin-dependent kinase 2 (Homo sapiens, UniProt P24941); experiment: Inhibition of CDK2 (unknown origin) by FRET assay
[8] = Antiproliferative activity against human PL45 cells assessed as growth inhibition incubated at 10 uM for 24 hrs by MTT assay relative to control; format: functional; conditions: read-out: GI
[9] = tested on: BT-549; experiment: Antiproliferative activity against human BT-549 cells assessed as growth inhibition incubated at 10 uM for 24 hrs by MTT assay relative to control; format: functional; conditions: read-out: GI
[10] = target: Tyrosine-protein kinase JAK1 (Homo sapiens, UniProt P23458); experiment: Inhibition of JAK1 (unknown origin) by FRET assay
[11] = target: T1, Tyrosine-protein kinase receptor UFO (Homo sapiens, UniProt P30530); experiment: Inhibition of AXL (unknown origin) by FRET assay
T1 sequence (P30530 whole entry): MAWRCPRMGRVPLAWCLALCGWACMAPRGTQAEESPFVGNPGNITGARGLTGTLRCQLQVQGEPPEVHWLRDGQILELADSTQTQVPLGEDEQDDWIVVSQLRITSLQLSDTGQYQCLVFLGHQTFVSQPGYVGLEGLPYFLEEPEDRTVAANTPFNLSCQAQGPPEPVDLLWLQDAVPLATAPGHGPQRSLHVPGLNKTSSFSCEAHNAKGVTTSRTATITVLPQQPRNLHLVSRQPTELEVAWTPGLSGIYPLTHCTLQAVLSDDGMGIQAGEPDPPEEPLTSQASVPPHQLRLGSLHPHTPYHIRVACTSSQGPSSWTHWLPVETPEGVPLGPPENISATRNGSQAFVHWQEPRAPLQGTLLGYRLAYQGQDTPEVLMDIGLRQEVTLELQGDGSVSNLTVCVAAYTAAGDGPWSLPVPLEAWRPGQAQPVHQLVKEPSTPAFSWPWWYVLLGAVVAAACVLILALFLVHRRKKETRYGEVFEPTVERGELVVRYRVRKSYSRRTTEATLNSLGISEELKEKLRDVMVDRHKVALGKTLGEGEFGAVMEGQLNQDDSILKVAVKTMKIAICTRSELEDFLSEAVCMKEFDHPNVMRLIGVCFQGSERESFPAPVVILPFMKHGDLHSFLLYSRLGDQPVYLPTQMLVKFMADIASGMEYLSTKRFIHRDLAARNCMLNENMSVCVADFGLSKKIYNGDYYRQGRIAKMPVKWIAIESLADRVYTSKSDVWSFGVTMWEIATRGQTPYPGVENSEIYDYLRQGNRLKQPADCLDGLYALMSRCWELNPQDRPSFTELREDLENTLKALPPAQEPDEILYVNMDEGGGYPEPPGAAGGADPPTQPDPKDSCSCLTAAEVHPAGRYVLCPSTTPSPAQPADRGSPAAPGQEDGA

[12] = tested on: KG-1; experiment: Antiproliferative activity against human KG-1 cells assessed as growth inhibition incubated at 10 uM for 24 hrs by MTT assay relative to control; format: functional; conditions: read-out: GI
[13] = tested on: G-361; experiment: Antiproliferative activity against human G-361 cells assessed as growth inhibition incubated at 10 uM for 24 hrs by MTT assay relative to control; format: functional; conditions: read-out: GI
[14] = target: Protein-tyrosine kinase 2-beta (Homo sapiens, UniProt Q14289); experiment: Inhibition of PTK2B (unknown origin) by FRET assay
[15] = Antiproliferative activity against human MDA-PATC53 cells assessed as growth inhibition incubated for 24 hrs by MTT assay; format: functional, cell-based; conditions: MDA-PATC53, 24 h
[16] = target: Cyclin-dependent kinase 1 (Homo sapiens, UniProt P06493); experiment: Inhibition of CDK1 (unknown origin) by FRET assay
[17] = Antiproliferative activity against human PL45 cells assessed as growth inhibition incubated for 24 hrs by MTT assay; format: functional, cell-based; conditions: PL45, 24 h
[18] = tested on: MCF7; experiment: Antiproliferative activity against human MCF7 cells assessed as growth inhibition incubated at 10 uM for 24 hrs by MTT assay relative to control; format: functional; conditions: read-out: GI
[19] = tested on: HT-29; experiment: Antiproliferative activity against human HT-29 cells assessed as growth inhibition incubated at 10 uM for 24 hrs by MTT assay relative to control; format: functional; conditions: read-out: GI
[20] = tested on: SK-MEL-1; experiment: Antiproliferative activity against human SK-MEL-1 cells assessed as growth inhibition incubated at 10 uM for 24 hrs by MTT assay relative to control; format: functional; conditions: read-out: GI
[21] = target: Serine/threonine-protein kinase B-raf (Homo sapiens, UniProt P15056); experiment: Inhibition of BRAF (unknown origin) by FRET assay
[22] = tested on: T84; experiment: Antiproliferative activity against human T84 cells assessed as growth inhibition incubated at 10 uM for 24 hrs by MTT assay relative to control; format: functional; conditions: read-out: GI
[23] = Selectivity index, ratio of IC50 for CDK2 (unknown origin) to CDK1 (unknown origin)
[24] = Antiproliferative activity against human MDA-PATC53 cells assessed as growth inhibition incubated at 10 uM for 24 hrs by MTT assay relative to control; format: functional; conditions: read-out: GI

Sequence of Protein-tyrosine kinase 2-beta (Q14289 whole entry): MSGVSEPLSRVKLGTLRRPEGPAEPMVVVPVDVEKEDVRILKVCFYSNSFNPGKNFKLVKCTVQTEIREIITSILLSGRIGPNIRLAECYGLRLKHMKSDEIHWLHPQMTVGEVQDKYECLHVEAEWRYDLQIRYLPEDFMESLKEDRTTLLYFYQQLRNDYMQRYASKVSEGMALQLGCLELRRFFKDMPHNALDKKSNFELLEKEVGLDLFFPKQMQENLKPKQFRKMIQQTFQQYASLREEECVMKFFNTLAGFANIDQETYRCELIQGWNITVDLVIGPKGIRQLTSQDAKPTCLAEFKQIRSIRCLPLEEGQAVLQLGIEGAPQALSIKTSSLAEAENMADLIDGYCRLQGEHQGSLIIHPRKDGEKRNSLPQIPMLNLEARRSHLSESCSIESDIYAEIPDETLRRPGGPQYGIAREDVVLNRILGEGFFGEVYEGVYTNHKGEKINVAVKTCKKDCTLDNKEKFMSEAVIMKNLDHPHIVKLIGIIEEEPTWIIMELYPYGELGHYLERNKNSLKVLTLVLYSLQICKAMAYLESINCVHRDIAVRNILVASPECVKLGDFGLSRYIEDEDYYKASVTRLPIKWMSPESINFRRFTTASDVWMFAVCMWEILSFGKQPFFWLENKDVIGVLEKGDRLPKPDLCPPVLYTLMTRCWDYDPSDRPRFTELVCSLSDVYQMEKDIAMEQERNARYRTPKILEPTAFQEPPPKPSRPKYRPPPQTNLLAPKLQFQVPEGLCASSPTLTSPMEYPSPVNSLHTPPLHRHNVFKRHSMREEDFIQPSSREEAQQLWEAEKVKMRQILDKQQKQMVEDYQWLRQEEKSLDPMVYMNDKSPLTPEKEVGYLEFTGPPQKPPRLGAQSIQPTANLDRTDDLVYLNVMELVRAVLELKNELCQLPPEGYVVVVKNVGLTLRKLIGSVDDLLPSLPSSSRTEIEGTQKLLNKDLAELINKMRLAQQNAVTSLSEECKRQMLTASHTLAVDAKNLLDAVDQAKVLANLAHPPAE
Sequence of Cyclin-dependent kinase 1 (P06493 whole entry): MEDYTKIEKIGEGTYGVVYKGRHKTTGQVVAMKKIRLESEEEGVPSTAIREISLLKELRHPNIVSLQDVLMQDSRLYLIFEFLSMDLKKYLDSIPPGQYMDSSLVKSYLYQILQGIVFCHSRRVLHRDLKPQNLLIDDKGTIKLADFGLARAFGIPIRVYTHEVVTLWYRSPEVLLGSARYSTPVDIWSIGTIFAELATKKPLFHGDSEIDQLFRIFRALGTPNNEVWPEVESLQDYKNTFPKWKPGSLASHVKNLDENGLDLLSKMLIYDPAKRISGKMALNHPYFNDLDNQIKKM
Sequence of Serine/threonine-protein kinase B-raf (P15056 whole entry): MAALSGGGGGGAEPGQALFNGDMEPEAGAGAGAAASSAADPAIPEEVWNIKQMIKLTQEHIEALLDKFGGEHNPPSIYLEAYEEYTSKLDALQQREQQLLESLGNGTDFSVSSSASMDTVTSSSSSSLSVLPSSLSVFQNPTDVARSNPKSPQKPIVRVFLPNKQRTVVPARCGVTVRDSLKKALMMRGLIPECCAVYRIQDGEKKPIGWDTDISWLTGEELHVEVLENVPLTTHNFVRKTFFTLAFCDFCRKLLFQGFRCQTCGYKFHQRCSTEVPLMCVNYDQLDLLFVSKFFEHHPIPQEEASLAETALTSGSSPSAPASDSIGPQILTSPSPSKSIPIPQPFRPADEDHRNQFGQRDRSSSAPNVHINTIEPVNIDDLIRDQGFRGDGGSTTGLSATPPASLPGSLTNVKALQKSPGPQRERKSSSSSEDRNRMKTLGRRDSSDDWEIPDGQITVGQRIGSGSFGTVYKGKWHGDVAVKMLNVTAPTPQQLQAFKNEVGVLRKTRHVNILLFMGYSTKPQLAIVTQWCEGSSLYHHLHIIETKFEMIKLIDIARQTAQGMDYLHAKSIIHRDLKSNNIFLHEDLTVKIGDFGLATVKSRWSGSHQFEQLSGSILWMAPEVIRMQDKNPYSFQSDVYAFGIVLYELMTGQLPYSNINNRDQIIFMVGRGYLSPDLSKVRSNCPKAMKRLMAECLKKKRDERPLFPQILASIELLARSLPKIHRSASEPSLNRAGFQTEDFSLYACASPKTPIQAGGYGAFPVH
Sequence of Tyrosine-protein kinase JAK1 (P23458 whole entry): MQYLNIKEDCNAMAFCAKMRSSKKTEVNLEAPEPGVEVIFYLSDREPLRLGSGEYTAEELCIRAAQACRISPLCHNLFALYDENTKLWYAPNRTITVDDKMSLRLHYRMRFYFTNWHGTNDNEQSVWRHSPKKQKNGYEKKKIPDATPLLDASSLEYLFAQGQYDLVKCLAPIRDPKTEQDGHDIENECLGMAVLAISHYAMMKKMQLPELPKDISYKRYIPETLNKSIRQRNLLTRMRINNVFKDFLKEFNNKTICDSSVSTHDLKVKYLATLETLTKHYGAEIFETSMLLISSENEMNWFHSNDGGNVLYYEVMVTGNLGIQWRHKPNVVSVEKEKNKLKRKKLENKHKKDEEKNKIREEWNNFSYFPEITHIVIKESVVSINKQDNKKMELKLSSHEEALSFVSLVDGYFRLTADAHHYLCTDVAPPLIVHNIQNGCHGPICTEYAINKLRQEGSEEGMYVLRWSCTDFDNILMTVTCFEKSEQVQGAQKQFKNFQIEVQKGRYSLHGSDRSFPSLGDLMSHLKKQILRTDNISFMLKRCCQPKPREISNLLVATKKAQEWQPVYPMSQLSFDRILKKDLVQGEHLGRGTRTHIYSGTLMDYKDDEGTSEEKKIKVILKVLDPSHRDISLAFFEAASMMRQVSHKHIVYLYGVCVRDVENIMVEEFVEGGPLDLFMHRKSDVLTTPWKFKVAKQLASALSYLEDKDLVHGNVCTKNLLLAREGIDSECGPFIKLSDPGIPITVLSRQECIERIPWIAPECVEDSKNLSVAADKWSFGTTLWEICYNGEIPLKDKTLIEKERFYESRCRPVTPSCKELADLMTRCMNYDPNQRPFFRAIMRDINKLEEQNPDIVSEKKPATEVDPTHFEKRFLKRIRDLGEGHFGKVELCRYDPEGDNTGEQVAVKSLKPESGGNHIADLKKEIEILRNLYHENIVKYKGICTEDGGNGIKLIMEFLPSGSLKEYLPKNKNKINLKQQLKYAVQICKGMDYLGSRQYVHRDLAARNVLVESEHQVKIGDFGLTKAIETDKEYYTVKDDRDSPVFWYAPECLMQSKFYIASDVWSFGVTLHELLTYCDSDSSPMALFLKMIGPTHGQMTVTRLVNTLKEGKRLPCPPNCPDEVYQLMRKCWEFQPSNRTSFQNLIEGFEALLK
Sequence of Cyclin-dependent kinase 5 (Q00535 whole entry): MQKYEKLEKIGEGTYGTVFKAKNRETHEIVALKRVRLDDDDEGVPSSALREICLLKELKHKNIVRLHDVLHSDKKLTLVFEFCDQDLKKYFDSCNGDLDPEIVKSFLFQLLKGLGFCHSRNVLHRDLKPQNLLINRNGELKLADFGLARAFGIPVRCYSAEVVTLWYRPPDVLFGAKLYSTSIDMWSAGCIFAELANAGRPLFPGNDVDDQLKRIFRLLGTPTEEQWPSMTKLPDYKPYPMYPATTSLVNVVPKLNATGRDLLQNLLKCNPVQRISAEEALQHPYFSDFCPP
Sequence of Insulin-like growth factor 1 receptor (P08069 31-736 limits assumed): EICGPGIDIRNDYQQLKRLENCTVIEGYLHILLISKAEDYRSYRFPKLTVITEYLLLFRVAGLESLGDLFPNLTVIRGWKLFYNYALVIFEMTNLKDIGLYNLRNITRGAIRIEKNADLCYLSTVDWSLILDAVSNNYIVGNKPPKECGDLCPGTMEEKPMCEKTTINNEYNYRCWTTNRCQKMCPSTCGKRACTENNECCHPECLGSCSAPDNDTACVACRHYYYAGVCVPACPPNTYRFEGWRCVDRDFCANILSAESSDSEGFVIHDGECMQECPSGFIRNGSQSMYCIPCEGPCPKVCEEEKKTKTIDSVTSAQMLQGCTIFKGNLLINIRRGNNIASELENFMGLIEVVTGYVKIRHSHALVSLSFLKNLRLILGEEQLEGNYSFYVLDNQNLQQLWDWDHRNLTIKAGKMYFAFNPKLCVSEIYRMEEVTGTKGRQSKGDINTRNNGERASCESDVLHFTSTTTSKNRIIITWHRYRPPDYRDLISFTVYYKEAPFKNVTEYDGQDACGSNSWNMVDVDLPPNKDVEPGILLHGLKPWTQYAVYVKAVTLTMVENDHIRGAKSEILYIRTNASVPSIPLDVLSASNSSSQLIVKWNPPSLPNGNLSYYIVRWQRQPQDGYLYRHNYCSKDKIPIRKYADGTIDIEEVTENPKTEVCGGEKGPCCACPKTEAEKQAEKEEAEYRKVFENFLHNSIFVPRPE
Sequence of Insulin-like growth factor 1 receptor (P08069 741-1367 limits assumed): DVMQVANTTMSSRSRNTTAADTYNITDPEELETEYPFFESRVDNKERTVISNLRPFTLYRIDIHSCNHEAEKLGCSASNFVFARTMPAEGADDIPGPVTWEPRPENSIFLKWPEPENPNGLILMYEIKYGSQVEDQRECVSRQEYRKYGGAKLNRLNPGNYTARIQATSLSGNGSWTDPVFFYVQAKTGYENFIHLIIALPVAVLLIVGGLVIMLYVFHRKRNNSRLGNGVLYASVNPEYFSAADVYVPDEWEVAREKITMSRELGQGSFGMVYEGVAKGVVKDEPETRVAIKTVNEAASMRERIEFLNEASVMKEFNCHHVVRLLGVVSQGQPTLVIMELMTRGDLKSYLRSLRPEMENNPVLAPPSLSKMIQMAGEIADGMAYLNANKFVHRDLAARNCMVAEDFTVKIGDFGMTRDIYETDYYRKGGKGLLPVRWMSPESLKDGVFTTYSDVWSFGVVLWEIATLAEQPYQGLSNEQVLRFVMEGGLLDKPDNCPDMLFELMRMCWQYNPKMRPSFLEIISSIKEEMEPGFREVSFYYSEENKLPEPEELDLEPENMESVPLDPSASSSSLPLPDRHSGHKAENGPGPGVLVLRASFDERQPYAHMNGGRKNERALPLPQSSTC

SMILES: COc1ccc(Cc2nnc(N3CCN(C(=S)Nc4ccc(Cl)cc4)CC3)c3ccccc23)cc1
- inhibition of growth at 10 µM [1]: 85.6%
- inhibition of growth at 10 µM [2]: 78.4%
- IC50 [3]: 7440 nM
- Ratio IC50 [4]: 14.5
- IC50 [5]: 716 nM
- IC50 [6]: 4354 nM
- IC50 [7]: 534 nM
- inhibition of growth at 10 µM [8]: 86.4%
- inhibition of growth at 10 µM [9]: 75.4%
- IC50 [10]: 4150 nM
- IC50 [11]: 2170 nM
- inhibition of growth at 10 µM [12]: 63.9%
- inhibition of growth at 10 µM [13]: 72.3%
- IC50 [14]: 2370 nM
- IC50 [15]: 1620 nM
- IC50 [16]: 49.5 nM
- IC50 [17]: 1890 nM
- inhibition of growth at 10 µM [18]: 71.9%
- inhibition of growth at 10 µM [19]: 80.1%
- inhibition of growth at 10 µM [20]: 64.7%
- IC50 [21]: 2470 nM
- inhibition of growth at 10 µM [22]: 81.4%
- Ratio IC50 [23]: 10.8
- inhibition of growth at 10 µM [24]: 85.8%

SMILES: O=C(Nc1ccccc1)N1CCN(c2nnc(Cc3ccccc3)c3ccccc23)CC1
- inhibition of growth at 10 µM [1]: 62%
- inhibition of growth at 10 µM [2]: 41%
- IC50 [3]: 1270 nM
- Ratio IC50 [4]: 2.95
- IC50 [5]: 159 nM
- IC50 [6]: 2579 nM
- IC50 [7]: 286 nM
- inhibition of growth at 10 µM [8]: 87.4%
- inhibition of growth at 10 µM [9]: 76.5%
- IC50 [10]: 3630 nM
- IC50 [11]: 7530 nM
- inhibition of growth at 10 µM [12]: 29.7%
- inhibition of growth at 10 µM [13]: 23.8%
- IC50 [14]: 2490 nM
- IC50 [15]: 2970 nM
- IC50 [16]: 53.8 nM
- IC50 [17]: 1650 nM
- inhibition of growth at 10 µM [18]: 18.4%
- inhibition of growth at 10 µM [19]: 36.2%
- inhibition of growth at 10 µM [20]: 49.7%
- IC50 [21]: 9310 nM
- inhibition of growth at 10 µM [22]: 63.1%
- Ratio IC50 [23]: 5.31
- inhibition of growth at 10 µM [24]: 77.9%

SMILES: COc1ccc(Cc2nnc(N3CCN(C(=O)Nc4ccccc4)CC3)c3ccccc23)cc1
- inhibition of growth at 10 µM [1]: 36.1%
- inhibition of growth at 10 µM [2]: 27.8%
- IC50 [3]: 5420 nM
- Ratio IC50 [4]: 7.22
- IC50 [5]: 601 nM
- IC50 [6]: 2628 nM
- IC50 [7]: 515 nM
- inhibition of growth at 10 µM [8]: 73.6%
- inhibition of growth at 10 µM [9]: 56%
- IC50 [10]: 2050 nM
- IC50 [11]: 2370 nM
- inhibition of growth at 10 µM [12]: 49.7%
- inhibition of growth at 10 µM [13]: 29.8%
- IC50 [14]: 5820 nM
- IC50 [15]: 11300 nM
- IC50 [16]: 83.2 nM
- IC50 [17]: 2980 nM
- inhibition of growth at 10 µM [18]: 33.4%
- inhibition of growth at 10 µM [19]: 51.3%
- inhibition of growth at 10 µM [20]: 27.1%
- IC50 [21]: 4750 nM
- inhibition of growth at 10 µM [22]: 53.6%
- Ratio IC50 [23]: 6.19
- inhibition of growth at 10 µM [24]: 46.3%

SMILES: COc1ccc(NC(=S)N2CCN(c3nnc(Cc4ccccc4)c4ccccc34)CC2)cc1
- inhibition of growth at 10 µM [1]: 11.2%
- inhibition of growth at 10 µM [2]: 14.2%
- IC50 [3]: 8630 nM
- Ratio IC50 [4]: 3.94
- IC50 [5]: 498 nM
- IC50 [6]: 5517 nM
- IC50 [7]: 308 nM
- inhibition of growth at 10 µM [8]: 49.6%
- inhibition of growth at 10 µM [9]: 8.65%
- IC50 [10]: 2540 nM
- IC50 [11]: 4420 nM
- inhibition of growth at 10 µM [12]: 1.36%
- inhibition of growth at 10 µM [13]: 24.6%
- IC50 [14]: 3640 nM
- IC50 [15]: 10200 nM
- IC50 [16]: 126 nM
- IC50 [17]: 12500 nM
- inhibition of growth at 10 µM [18]: 10.1%
- inhibition of growth at 10 µM [19]: 21.9%
- inhibition of growth at 10 µM [20]: 6.64%
- IC50 [21]: 4490 nM
- inhibition of growth at 10 µM [22]: 9.67%
- Ratio IC50 [23]: 2.43
- inhibition of growth at 10 µM [24]: 49%

SMILES: CCc1cnn2c(NCc3ccc[n+]([O-])c3)cc(N3CCCC[C@H]3CCO)nc12 [DINACICLIB]
- IC50 [15]: 24 nM
- IC50 [17]: 15 nM

Reference: ChEMBL document CHEMBL5352421, “Identification of novel piperazine-tethered phthalazines as selective CDK1 inhibitors endowed with in vitro anticancer activity toward the pancreatic cancer” (Eur J Med Chem, 2022)
